Type in all cases: cell-based
In data set [1] the test system is renal tubular cell lines, MCT. The experiment in a line: Nitrite production inhibition (Greiss colorimetric technique) in cytokine-stimulated MCT cells. The following applies: for % of reduction in nitrite production: cytokine cocktail 10 ng·mL^−1, compound 10 μM; for Nitrite production, LPS or cytokines + Compound (10 μM): cytokine cocktail (TNFα, IL1β, IFNγ, TFGβ) 10 ng·mL^−1, compound 10 μM, baseline = 1.00. On the procedure:
(§1) Anti-inflammatory activity was measured on Bv.2 microglial cell line (innate immune system of the central nervous system), macrophages, Raw 264.7 cell line (peripheral immune system), renal tubular cell lines, MCT (renal tubule epithelials) and pancreatic beta cells, INS-1 (insulin-producing cells targeted in the process leading to diabetes mellitus). […] The activation of the inflammatory process induces the secretion of nitrites (NO2) into the medium, so the induction and modulation of the inflammatory response by 3-(4,5-dihydroxy-2-(2-ethylthio)ethylphenyl)phthalide and 3-(2,4-dihydroxyphenyl)phthalide can be determined by means of the Greiss colorimetric technique.
(§2) Tables 1 and 2 show the results of the nitrite production inhibitory activity caused by compounds II and III (10 μM), respectively, on LPS-stimulated Bv2 and Raw264.7 cell lines and on cytokine-stimulated MCT and INS-1 cell lines.

Data set [2] deals with Bv.2 microglial cell line. The experiment in a line: Nitrite production inhibition (Greiss colorimetric technique) in LPS-stimulated Bv.2 cells. The following applies: LPS 2 μg·mL^−1, compound 10 μM; for Nitrite production, LPS or cytokines + Compound (10 μM): baseline = 1.00. How it is done: as §1, §2
The subject of data set [3] is pancreatic beta cells, INS-1. The experiment in a line: Nitrite production inhibition (Greiss colorimetric technique) in cytokine-stimulated INS-1 cells. The conditions noted are these: for % of reduction in nitrite production: cytokine cocktail 10 ng·mL^−1, compound 10 μM; for Nitrite production, LPS or cytokines + Compound (10 μM): cytokine cocktail (TNFα, IL1β, IFNγ, TFGβ) 10 ng·mL^−1, compound 10 μM, baseline = 1. On the procedure: as §1, §2

Data set [4] concerns Bv.2, Raw 264.7, MCT and INS-1 cell lines. The experiment in a line: Cytotoxic effect in treated cell lines. The following applies: any of the treated cell lines.
Data set [5] concerns macrophages, Raw 264.7 cell line. The experiment in a line: Nitrite production inhibition (Greiss colorimetric technique) in LPS-stimulated Raw 264.7 cells. The conditions noted are these: LPS 2 μg·mL^−1, compound 10 μM; for Nitrite production, LPS or cytokines + Compound (10 μM): baseline = 1.00. How it is done: as §1, §2
Data set [6] relates to Nos2. The experiment in a line: Nos2 expression inhibition (qPCR) in retinal explants from BB rat. The following applies: retinal explant, 20 μM for 24 h. How it is done: (§3) Anti-inflammatory activity was determined using organotypic cultures or retinal and kidney explants from a murine model which develops type 1 or autoimmune diabetes mellitus spontaneously, i.e., BioBreeding (BB) rat. This animal model of type 1 diabetes mellitus reproduces disease progression in a manner similar to that occurring in patients. Tissues, retina, and kidney are extracted, maintaining cytoarchitecture and tissue connections of each of the organs, from BB rats that are 7 weeks old, which is the time before the presence of constant hyperglycemia, which appears around weeks 9-11 of life. A prediabetic model with active inflammatory parameters that resemble those occurring during the progression of type 1 diabetes mellitus in patients is thereby obtained. The cultured explants were treated with 3-(2,4-dihydroxyphenyl)phthalide (compound III) at a dose of 20 μM for 24 h.
(§4) Activation of the inflammatory process induces nitric oxide synthase, Nos2, gene expression, with messenger RNA quantification being determined by means of the quantitative PCR technique (qPCR), and can show inflammatory response modulation in retinal and kidney explants from an animal model with type 1 or autoimmune diabetes mellitus.

For data set [7], the system named is Nos2. The experiment in a line: Nos2 expression inhibition (qPCR) in kidney explants from BB rat. The following applies: kidney explant, 20 μM for 24 h. How it is done:
as §3, §4
(In general: In qPCR the cycle at which signal appears reflects the starting amount.)

[8] abbreviates: 7 weeks old BB rat, untreated BB rat = 1.00.

The text below walks through data of patent US20250011295A1, “USE OF 3-ARYLPHTHALIDES AND DERIVATIVES THEREOF AS ANTI-INFLAMMATORY AGENTS” (UNIVERSIDAD DE CÁDIZ, priority 2021, published 2025).

Molecules are shown by their SMILES.

For `CCSCCc1cc(O)c(O)cc1C1OC(=O)c2ccccc21` (stereo not shown) [Compound II, 3-(4,5-dihydroxy-2-(2-ethylthio)ethylphenyl)phthalide], the “% of reduction in nitrite production” value was determined as 77.91% in data set [1], 48.31% in data set [2], 18.82% in data set [3] and 79.88% in data set [5]. Also, the “Nitrite production, LPS or cytokines + Compound (10 μM)” value in data set [1] came out at 1.788 ± 0.29; in data set [2] it was 1.98 ± 0.203; in data set [3], 3.644 ± 0.004; in data set [5], 1.38 ± 0.43. The cytotoxic effect entry in data set [4] (increasing doses for 24 h until the maximum concentration of 25 μM) was “no cytotoxic effect was detected”.

`O=C1OC(c2ccc(O)cc2O)c2ccccc21` (stereo not shown) [Compound III, 3-(2,4-dihydroxyphenyl)phthalide]: the “% of reduction in nitrite production” value stood at 83.14% in data set [1], 62.92% in data set [2], 65.32% in data set [3] and 33.38% in data set [5]. In addition, the “Nitrite production, LPS or cytokines + Compound (10 μM)” value in data set [1] amounted to 1.53 ± 0.06; in data set [2], 3.47 ± 0.27; in data set [3], 1.48 ± 0.02; in data set [5], 3.60 ± 0.42. The “Nos2 expression, BB rat + 3-(2,4-dihydroxyphenyl)phthalide (20 μM)” value came out at 0.482 ± 0.05 in the data set with Nos2 [6] (setting [8]) and 0.348 ± 0.05 in the data set on Nos2 [7] (setting [8]). Further, the “% of reduction of Nos2 expression” value was found to be 51.8% in the data set on Nos2 [6] (BB rat) and 65.2% with Nos2 [7] (BB rat). In addition, the cytotoxic effect result in data set [4] (increasing doses for 24 h until the maximum concentration of 50 μM) is recorded as “no cytotoxic effect was detected”.
